Holding throughout (format): functional
For test [1], the system named is Radical scavenging activity. Briefly: DPPH radical scavenging activity.
The test system of test [2] is Radical scavenging activity. Kind of test: ABTS radical scavenging activity.
For test [3], the system named is Radical scavenging activity. Briefly: Superoxide radical scavenging activity.

For `COc1cc(/C=C/c2cc3oc(-c4ccc(O)c(O)c4)c(C(C)=O)c3c(=O)o2)ccc1O` [METHYLINOSCAVIN C], the results for the half-maximal inhibitory concentration (IC50) in test [1], in test [2] and in test [3] were more than 100 µM, 12.3 µM and more than 100 µM, respectively.
As for `CC1=CC(=O)[C@H](c2c(O)cc(/C=C/c3ccc(O)c(O)c3)oc2=O)[C@@H](c2ccc(O)c(O)c2)O1` [DAVALLIALACTONE], the IC50 is 3.4 µM in test [1], 0.8 µM in test [2] and 2.3 µM in test [3].
For `CC(=O)c1c(-c2ccc(O)c(O)c2)oc2cc(/C=C/c3ccc(O)c(O)c3)oc(=O)c12` [INOSCAVIN C] the same measures were more than 100 µM, 7.8 µM and more than 100 µM.
With `O=C(O)/C=C/c1ccc(O)c(O)c1` [CAFFEIC ACID], the IC50 in test [1] came to 31.7 µM; in test [2], 2.8 µM; in test [3], 2.9 µM.
Consider `COc1cc(/C=C/c2cc(O)c([C@H]3C(=O)C=C(C)O[C@@H]3c3ccc(O)c(O)c3)c(=O)o2)ccc1O` [METHYLDAVALLIALACTONE], for which the figures for the IC50 in test [1], in test [2] and in test [3] were 18.7 µM, 1.5 µM and 5.4 µM, respectively.

The record behind these values is ChEMBL document CHEMBL1146996, “Hispidin analogs from the mushroom Inonotus xeranticus and their free radical scavenging activity” (Bioorg Med Chem Lett, 2006).
